Results reported in patent publication US10821115B2, “Compounds that inhibit Mcl-1 protein” (priority 2017, dated 2020).
Read-outs that look alike come from different tables or passages of the source.

Tests used:
[1] = biological target: recombinant human Mcl-1 (residues 171-327) / Bim interaction (Homo sapiens (Human), UniProt Q07820); assay: biochemical; format: binding; settings: read-out: Mcl-1 HTRF IC50
[2] = system: human multiple myeloma cell line, OPM-2; assay: Cell viability assay (OPM-2 10 FBS), CellTiter-Glo; format: cell-based
How it was run: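 Steps: plate cells at 3000/well in 10% FBS growth medium, add serially diluted compound, incubate 16 h at 37 °C with 5% CO2, add detection reagent and read luminescence after 25 min. A 4-parameter logistic model gives IC50.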

[3] = TR-FRET, Mcl-1(171-327) / biotin-Bim (51-76)
[4] = read-out: OPM-2 10% FBS IC50 IP, OPM-2 cells, 10% FBS, 16 h, CellTiter-Glo
[5] = Homo sapiens, OPM-2, 16 h, read-out: OPM-2 10% FBS IC50 IP, OPM-2 cells, 10% FBS, 16 h, CellTiter-Glo

recombinant human Mcl-1 (residues 171-327) / Bim interaction, sequence (Q07820 171-327): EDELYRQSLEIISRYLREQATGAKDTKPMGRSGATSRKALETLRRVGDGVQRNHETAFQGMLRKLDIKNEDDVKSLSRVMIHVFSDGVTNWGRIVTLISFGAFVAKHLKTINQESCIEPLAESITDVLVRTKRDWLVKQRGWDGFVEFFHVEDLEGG

Structure (SMILES)	IC50 [1, 3]	IC50 [2, 4]	IC50 [2, 5]	IC50 ([1]; 0.1 nM Mcl-1(171-327), 0.05 nM biotin-Bim (51-76))	IC50 ([2]; Homo sapiens, OPM-2, 16 h, read-out: OPM-2 10% FBS IC50 IP, OPM-2 cells, 10% FBS, 16 h incubation)
C[C@@H]1[C@@H](C)C/C=C/[C@@](O)(c2ccc(F)nc2)[C@@H]2CC[C@H]2CN2C[C@@]3(CCCc4cc(Cl)ccc43)COc3ccc(cc32)C(=O)NS1(=O)=O (single isomer, unassigned) [Example 100530]	0.171 nM	448 nM			
C[C@@H]1[C@@H](C)C/C=C/[C@@](O)(c2cncc(-c3ccccc3)c2)[C@@H]2CC[C@H]2CN2C[C@@]3(CCCc4cc(Cl)ccc43)COc3ccc(cc32)C(=O)NS1(=O)=O (single isomer, unassigned) [Example 100534]	0.799 nM		542 nM		
CO[C@@]1(c2ccc(F)nc2)/C=C/C[C@H](C)[C@@H](C)S(=O)(=O)NC(=O)c2ccc3c(c2)N(C[C@@H]2CC[C@H]21)C[C@@]1(CCCc2cc(Cl)ccc21)CO3 (single isomer, unassigned) [Example 100535]	0.57 nM	964 nM			
C[C@@H]1[C@@H](C)C/C=C/[C@@](O)(c2cnccc2F)[C@@H]2CC[C@H]2CN2C[C@@]3(CCCc4cc(Cl)ccc43)COc3ccc(cc32)C(=O)NS1(=O)=O (single isomer, unassigned) [Example 100536]	0.204 nM		826 nM		
CO[C@@]1(c2cnccc2F)/C=C/C[C@H](C)[C@@H](C)S(=O)(=O)NC(=O)c2ccc3c(c2)N(C[C@@H]2CC[C@H]21)C[C@@]1(CCCc2cc(Cl)ccc21)CO3 (single isomer, unassigned) [Example 100538]	1.47 nM		2400 nM		
CO[C@]1(c2cnc(Cl)n2C)/C=C/C[C@H](C)[C@@H](C)S(=O)(=O)NC(=O)c2ccc3c(c2)N(C[C@@H]2CC[C@H]21)C[C@@]1(CCCc2cc(Cl)ccc21)CO3 (single isomer, unassigned) [Example 100539]	0.144 nM		727 nM		
C[C@@H]1[C@@H](C)C/C=C/[C@](O)(c2cnc(Cl)n2C)[C@@H]2CC[C@H]2CN2C[C@@]3(CCCc4cc(Cl)ccc43)COc3ccc(cc32)C(=O)NS1(=O)=O (single isomer, unassigned) [Example 100543]	0.451 nM		821 nM		
C[C@@H]1[C@@H](C)C/C=C/[C@@](O)(c2cnc(Cl)n2C)[C@@H]2CC[C@H]2CN2C[C@@]3(CCCc4cc(Cl)ccc43)COc3ccc(cc32)C(=O)NS1(=O)=O (single isomer, unassigned) [Example 100551]	0.174 nM		142 nM		
CO[C@]1(c2nccn2C)/C=C/C[C@H](C)[C@@H](C)S(=O)(=O)NC(=O)c2ccc3c(c2)N(C[C@@H]2CC[C@H]21)C[C@@]1(CCCc2cc(Cl)ccc21)CO3 (single isomer, unassigned) [Example 100553]	1.04 nM		2790 nM		
Cc1ncc([C@@]2(O)/C=C/C[C@H](C)[C@@H](C)S(=O)(=O)NC(=O)c3ccc4c(c3)N(C[C@@H]3CC[C@H]32)C[C@@]2(CCCc3cc(Cl)ccc32)CO4)n1C (single isomer, unassigned) [Example 100555]	0.101 nM		113 nM		
CO[C@@]1(c2nccn2C)/C=C/C[C@H](C)[C@@H](C)S(=O)(=O)NC(=O)c2ccc3c(c2)N(C[C@@H]2CC[C@H]21)C[C@@]1(CCCc2cc(Cl)ccc21)CO3 (single isomer, unassigned) [Example 100556]	0.113 nM		734 nM		
COc1ccncc1[C@]1(O)/C=C/C[C@H](C)[C@@H](C)S(=O)(=O)NC(=O)c2ccc3c(c2)N(C[C@@H]2CC[C@H]21)C[C@@]1(CCCc2cc(Cl)ccc21)CO3 (single isomer, unassigned) [Example 100557]	0.093 nM		299 nM		
CO[C@@]1(c2cnc(Cl)n2C)/C=C/C[C@H](C)[C@@H](C)S(=O)(=O)NC(=O)c2ccc3c(c2)N(C[C@@H]2CC[C@H]21)C[C@@]1(CCCc2cc(Cl)ccc21)CO3 (single isomer, unassigned) [Example 100558]	0.086 nM		274 nM		
Cc1ncc([C@]2(O)/C=C/C[C@H](C)[C@@H](C)S(=O)(=O)NC(=O)c3ccc4c(c3)N(C[C@@H]3CC[C@H]32)C[C@@]2(CCCc3cc(Cl)ccc32)CO4)n1C (single isomer, unassigned) [Example 100559]	0.113 nM		1030 nM		
CO[C@]1(C=O)/C=C/C[C@H](C)[C@@H](Cc2ccccc2)S(=O)(=O)NC(=O)c2ccc3c(c2)N(C[C@@H]2CC[C@H]21)C[C@@]1(CCCc2cc(Cl)ccc21)CO3 (single isomer, unassigned) [Example 100575]	1.3 nM		2500 nM		
CC[C@@H]1CC/C=C/[C@@](OC)(C2SCCCS2)[C@@H]2CC[C@H]2CN2C[C@@]3(CCCc4cc(Cl)ccc43)COc3ccc(cc32)C(=O)NS1(=O)=O (single isomer, unassigned) [Example 100579]	0.214 nM		757 nM		
CC[C@@H]1CC/C=C/[C@](C=O)(OC)[C@@H]2CC[C@H]2CN2C[C@@]3(CCCc4cc(Cl)ccc43)COc3ccc(cc32)C(=O)NS1(=O)=O (single isomer, unassigned) [Example 100580]	0.877 nM		6580 nM		
CO[C@@]1(C)/C=C/C[C@H](C)[C@@H](CCO)S(=O)(=O)NC(=O)c2ccc3c(c2)N(C[C@@H]2CC[C@H]21)C[C@@]1(CCCc2cc(Cl)ccc21)CO3 (single isomer, unassigned) [Example 100593]	0.464 nM		215 nM		
CO[C@@]1(C)/C=C/C[C@H](C)[C@@H](CCN2CCOCC2)S(=O)(=O)NC(=O)c2ccc3c(c2)N(C[C@@H]2CC[C@H]21)C[C@@]1(CCCc2cc(Cl)ccc21)CO3 (single isomer, unassigned) [Example 100595]	0.157 nM	133 nM			
CO[C@@]1(C)/C=C/C[C@H](C)[C@@H](CCO)S(=O)(=O)NC(=O)c2ccc3c(c2)N(C[C@@H]2CC[C@H]21)C[C@@]1(CCCc2cc(Cl)ccc21)CO3 (single isomer, unassigned) [Example 100596]	0.229 nM	186 nM			
CC[C@@H]1CC/C=C/[C@](COCCN2CCOCC2)(OC)[C@@H]2CC[C@H]2CN2C[C@@]3(CCCc4cc(Cl)ccc43)COc3ccc(cc32)C(=O)NS1(=O)=O (single isomer, unassigned) [Example 100597]	0.263 nM		577 nM		
CO[C@@]1(C)/C=C/C[C@H](C)[C@@H](CCOS(C)(=O)=O)S(=O)(=O)NC(=O)c2ccc3c(c2)N(C[C@@H]2CC[C@H]21)C[C@@]1(CCCc2cc(Cl)ccc21)CO3 (single isomer, unassigned) [Example 100598]	0.077 nM	188 nM			
CO[C@@]1(C)/C=C/C[C@H](C)[C@@H](CCN2CCOCC2)S(=O)(=O)NC(=O)c2ccc3c(c2)N(C[C@@H]2CC[C@H]21)C[C@@]1(CCCc2cc(Cl)ccc21)CO3 (single isomer, unassigned) [Example 100599]	1.15 nM	1140 nM			
C[C@@H]1[C@@H](C)C/C=C/[C@](C)(O)[C@@H]2CC[C@H]2CN2C[C@@]3(CCCc4cc(Cl)ccc43)COc3ccc(nc32)C(=O)NS1(=O)=O (single isomer, unassigned) [Example 100600]	0.445 nM		528 nM		
C[C@@H]1[C@@H](C)C/C=C/[C@@](C)(O)[C@@H]2CC[C@H]2CN2C[C@@]3(CCCc4cc(Cl)ccc43)COc3ccc(nc32)C(=O)NS1(=O)=O (single isomer, unassigned) [Example 100601]	0.114 nM		239 nM		
C[C@@H]1[C@@H](C)C/C=C/[C@@](CO)(OCC(F)(F)F)[C@@H]2CC[C@H]2CN2C[C@@]3(CCCc4cc(Cl)ccc43)COc3ccc(cc32)C(=O)NS1(=O)=O (single isomer, unassigned) [Example 100604]	0.723 nM		4110 nM		
CC[C@]1(CO)/C=C/C[C@H](C)[C@@H](C)S(=O)(=O)NC(=O)c2ccc3c(c2)N(C[C@@H]2CC[C@H]21)C[C@@]1(CCCc2cc(Cl)ccc21)CO3 (single isomer, unassigned) [Example 100605]	3.25 nM		7950 nM		
CCOC1(CN2CCN(C(C)C)CC2)/C=C/C[C@H](C)[C@@H](C)S(=O)(=O)NC(=O)c2ccc3c(c2)N(C[C@@H]2CC[C@H]21)C[C@@]1(CCCc2cc(Cl)ccc21)CO3 (stereo in doubt) [Example 115, (1S,3′R,6′R,7′R,8′E,11′S,12′R)-6-chloro-7′-ethoxy-11′,12′-dimethyl-7′-((4-(1-methylethyl)-1-piperazinyl)methyl)-3,4-dihydro-2H,15′H-spiro[naphthalene-1,22′-[20]oxa[13]thia[1,14]diazatetracyclo [14.7.2.0~3,6~.0~19,24~]pentacosa[8,16,18,24]tetraen]-15′-one 13′,13′-dioxide]				1.37 nM	686 nM
C[C@@H]1[C@@H](C)CC2C=CC[C@@](O)(C2)[C@@H]2CC[C@H]2CN2C[C@@]3(CCCc4cc(Cl)ccc43)COc3ccc(cc32)C(=O)NS1(=O)=O (stereo in doubt) [Example 100058, (1S,3′R,6′R,7′R,11′S,13′S,14′R)-6-chloro-7′-hydroxy-13′,14′-dimethyl-3,4-dihydro-2H,17′H-spiro[naphthalene-1,24′-[22]oxa[15]thia[1,16]diazapentacyclo [16.7.2.1~7,11~.0~3,6~.0~21,26~]octacosa [9,18,20,26]tetraen]-17′-one 15′,15′-dioxide]	1.76 nM		3360 nM		
C[C@@H]1[C@@H](C)C/C=C/[C@@](O)(C[S@@+](C)[O-])[C@@H]2CC[C@H]2CN2C[C@@]3(CCCc4cc(Cl)ccc43)COc3ccc(cc32)C(=O)NS1(=O)=O (stereo in doubt) [Example 100074]	0.731 nM		3020 nM		
